Measurements published in ChEMBL document CHEMBL4725261, “Design, synthesis and evaluation of carbamate-linked uridyl-based inhibitors of human ST6Gal I” (Bioorg Med Chem, 2020).

Assays:
[1] = target: T1, Beta-galactoside alpha-2,6-sialyltransferase 1 (Homo sapiens) (UniProt P15907); test: Inhibition of recombinant human N-terminal 6His-tagged ST6Gal-1 (Glu44 to Cys406 residues) assessed as CMP production at 10 uM using CMP-Neu5Ac as donar substrate and LacNAc as acceptor by CMP-Glo luminescence microplate reader assay relative to control
T1 sequence (whole entry): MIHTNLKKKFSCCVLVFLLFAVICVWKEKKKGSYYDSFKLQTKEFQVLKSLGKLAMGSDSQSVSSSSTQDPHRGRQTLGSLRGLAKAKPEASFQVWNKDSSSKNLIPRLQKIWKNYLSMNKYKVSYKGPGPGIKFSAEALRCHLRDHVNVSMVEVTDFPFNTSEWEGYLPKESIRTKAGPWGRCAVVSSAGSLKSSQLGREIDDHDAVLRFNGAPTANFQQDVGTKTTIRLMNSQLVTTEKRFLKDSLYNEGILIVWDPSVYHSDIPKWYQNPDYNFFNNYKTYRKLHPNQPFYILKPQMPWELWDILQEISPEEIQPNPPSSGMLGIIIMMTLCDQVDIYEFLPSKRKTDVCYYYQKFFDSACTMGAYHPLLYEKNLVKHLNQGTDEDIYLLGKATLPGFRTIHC

[2] = target: T1, Beta-galactoside alpha-2,6-sialyltransferase 1 (Homo sapiens); test: Binding affinity to recombinant human N-terminal 6His-tagged ST6Gal-1 (Glu44 to Cys406 residues) assessed as Km/Ki ratio

SMILES	inhibition [1] [%]	Ratio [2]
O=C(NC[C@H]1O[C@@H](n2ccc(=O)[nH]c2=O)[C@H](O)[C@@H]1O)OC(c1cccc(F)c1)P(=O)(O)O (stereo in doubt; 28d-(l))	18	–
O=C(NC[C@H]1O[C@@H](n2ccc(=O)[nH]c2=O)[C@H](O)[C@@H]1O)OC(c1ccc(F)cc1)P(=O)(O)O (stereo in doubt; 28c-(l))	58.9	32.5
Nc1ccn([C@@H]2O[C@H](CNC(=O)OC(c3cccc(Oc4ccccc4)c3)P(=O)(O)O)[C@@H](O)[C@H]2O)c(=O)n1 (stereo in doubt; 30-(l))	6.3	–
O=C(NC[C@H]1O[C@@H](n2ccc(=O)[nH]c2=O)[C@H](O)[C@@H]1O)OC(c1ccc(OC2CCCC2)cc1)P(=O)(O)O (stereo in doubt; 28i-(l))	78	3.2
O=C(NC[C@H]1O[C@@H](n2ccc(=O)[nH]c2=O)[C@H](O)[C@@H]1O)OC(c1ccccc1)P(=O)(O)O (stereo in doubt; 28j-(s))	7.1	–
O=C(NC[C@H]1O[C@@H](n2ccc(=O)[nH]c2=O)[C@H](O)[C@@H]1O)OC(c1csc2ccccc12)P(=O)(O)O (stereo in doubt; 28l-(l))	6.9	–
O=C(NC[C@H]1O[C@@H](n2ccc(=O)[nH]c2=O)[C@H](O)[C@@H]1O)OC(c1ccccc1)P(=O)(O)O (stereo in doubt; 28j-(l))	15.2	–
COc1ccc(C(OC(=O)NC[C@H]2O[C@@H](n3ccc(=O)[nH]c3=O)[C@H](O)[C@@H]2O)P(=O)(O)O)cc1 (stereo in doubt; 28g-(l))	7.1	–
O=C(NC[C@H]1O[C@@H](n2ccc(=O)[nH]c2=O)[C@H](O)[C@@H]1O)OC(c1ccc(F)c(Oc2ccccc2)c1)P(=O)(O)O (stereo in doubt; 28b-(l))	1.8	–
O=C(NC[C@H]1O[C@@H](n2ccc(=O)[nH]c2=O)[C@H](O)[C@@H]1O)OC(c1cc2ccccc2s1)P(=O)(O)O (stereo in doubt; 28k-(l))	13.2	–
COc1ccc(C(OC(=O)NC[C@H]2O[C@@H](n3ccc(=O)[nH]c3=O)[C@H](O)[C@@H]2O)P(=O)(O)O)cc1 (stereo in doubt; 28g-(s))	18.1	–
CCCOc1cccc(C(OC(=O)NC[C@H]2O[C@@H](n3ccc(=O)[nH]c3=O)[C@H](O)[C@@H]2O)P(=O)(O)O)c1 (stereo in doubt; 28e-(l))	30.9	1.8
Nc1ccn([C@@H]2O[C@H](CNC(=O)OC(c3cccc(Oc4ccccc4)c3)P(=O)(O)O)[C@@H](O)[C@H]2O)c(=O)n1 (stereo in doubt; 30-(s))	2.2	–
O=C(NC[C@H]1O[C@@H](n2ccc(=O)[nH]c2=O)[C@H](O)[C@@H]1O)OC(c1ccc(F)c(Oc2ccccc2)c1)P(=O)(O)O (stereo in doubt; 28b-(s))	1.1	–
O=C(NC[C@H]1O[C@@H](n2ccc(=O)[nH]c2=O)[C@H](O)[C@@H]1O)OC(c1ccc(OC2CCCC2)cc1)P(=O)(O)O (stereo in doubt; 28i-(s))	19	0.7
O=C(NC[C@H]1O[C@@H](n2ccc(=O)[nH]c2=O)[C@H](O)[C@@H]1O)OC(c1ccc(F)cc1)P(=O)(O)O (stereo in doubt; 28c-(s))	34.6	0.1
COc1cccc(C(OC(=O)NC[C@H]2O[C@@H](n3ccc(=O)[nH]c3=O)[C@H](O)[C@@H]2O)P(=O)(O)O)c1 (stereo in doubt; 28f-(l))	23.6	–
O=C(NC[C@H]1O[C@@H](n2ccc(=O)[nH]c2=O)[C@H](O)[C@@H]1O)OC(c1csc2ccccc12)P(=O)(O)O (stereo in doubt; 28l-(s))	5.9	–
O=C(NC[C@H]1O[C@@H](n2ccc(=O)[nH]c2=O)[C@H](O)[C@@H]1O)OC(c1cccc(F)c1)P(=O)(O)O (stereo in doubt; 28d-(s))	36.6	1.9
COc1cccc(C(OC(=O)NC[C@H]2O[C@@H](n3ccc(=O)[nH]c3=O)[C@H](O)[C@@H]2O)P(=O)(O)O)c1 (stereo in doubt; 28f-(s))	29.8	–
O=C(NC[C@H]1O[C@@H](n2ccc(=O)[nH]c2=O)[C@H](O)[C@@H]1O)OC(c1cccc(Oc2ccccc2)c1)P(=O)(O)O (stereo in doubt; 28a-(l))	28.2	–
COc1ccc(C(OC(=O)NC[C@H]2O[C@@H](n3ccc(=O)[nH]c3=O)[C@H](O)[C@@H]2O)P(=O)(O)O)cc1OC1CCCC1 (stereo in doubt; 28h-(s))	12.7	–
COc1ccc(C(OC(=O)NC[C@H]2O[C@@H](n3ccc(=O)[nH]c3=O)[C@H](O)[C@@H]2O)P(=O)(O)O)cc1OC1CCCC1 (stereo in doubt; 28h-(l))	7.9	–
O=C(NC[C@H]1O[C@@H](n2ccc(=O)[nH]c2=O)[C@H](O)[C@@H]1O)OC(c1cccc(Oc2ccccc2)c1)P(=O)(O)O (stereo in doubt; 28a-(s))	19.9	–
CCCOc1cccc(C(OC(=O)NC[C@H]2O[C@@H](n3ccc(=O)[nH]c3=O)[C@H](O)[C@@H]2O)P(=O)(O)O)c1 (stereo in doubt; 28e-(s))	7.2	–
O=C(NC[C@H]1O[C@@H](n2ccc(=O)[nH]c2=O)[C@H](O)[C@@H]1O)OC(c1cc2ccccc2s1)P(=O)(O)O (stereo in doubt; 28k-(s))	66.4	4.4
